# Test results from ChEMBL document CHEMBL1201862, “PubChem BioAssay data set” (2004).
#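 Values below derive from 48-hour exposures of cells grown in 96-well plates, with endpoints linearly interpolated between the two concentrations bracketing the appropriate inhibition level. At the GI50, growth is halved.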 Calls of active or inactive are those of the source. Rule as the data show it: active = GI50 up to about 1.1 µM and inactive = higher. Residues, ends and D or L forms follow the SMILES beside them. Groups on a side chain read outwards from the residue. *: point of attachment. Cbz = O=C(OCc1ccccc1)*; Boc = CC(C)(C)OC(=O)*
# Tests used:
# Assay in all cases: NCI tumour cell line growth inhibition, 48 h
# [1] = system: HL-60
# [2] = system: SNB-75
# [3] = system: SF-539
# [4] = system: HOP-62
# [5] = system: KM12
# [6] = system: NCI-H23
# [7] = system: COLO 205
# [8] = system: HCT-15
# [9] = system: NCI-H460
# [10] = system: 786-0
# [11] = system: NCI-H522
# [12] = system: SF-268
# [13] = system: HCC 2998
# [14] = system: SK-MEL-2
# [15] = system: OVCAR-8
# [16] = system: CCRF-CEM
# [17] = system: NCI/ADR-RES
# [18] = system: MDA-MB-231
# [19] = system: Hs-578T
# [20] = system: BT-549
SMILES,GI50 [1],GI50 [2],GI50 [3],GI50 [4],GI50 [5],GI50 [6],GI50 [7],GI50 [8],GI50 [9],GI50 [10],GI50 [11],GI50 [12],GI50 [13],GI50 [14],GI50 [15],GI50 [16],GI50 [17],GI50 [18],GI50 [19],GI50 [20]
CCCCCN(CCCCC)C(=O)[C@H](CCC(=O)O)NC(=O)c1cc2ccccc2[nH]1,29.3 µM (inactive),32.7 µM (inactive),41.2 µM (inactive),56 µM (inactive),50.4 µM (inactive),28.2 µM (inactive),> 100 µM (inactive),54.8 µM,39.3 µM (inactive),92.7 µM (inactive),20.2 µM (inactive),33.9 µM (inactive),33.4 µM (inactive),41.9 µM (inactive),77.1 µM (inactive),33.4 µM (inactive),–,–,–,–
C1COCCSC2=C(SCCO1)SC(=C1SC3=C(SCCOCCOCCS3)S1)S2,> 100 µM (inactive),21.7 µM (inactive),34.5 µM (inactive),82.2 µM (inactive),> 100 µM (inactive),> 100 µM (inactive),> 100 µM (inactive),> 100 µM,96.4 µM (inactive),45.8 µM (inactive),36.2 µM (inactive),51.1 µM (inactive),> 100 µM (inactive),84.3 µM (inactive),53.5 µM (inactive),> 100 µM (inactive),–,–,–,–
COc1c(-c2cc(C)c(Cl)c(=O)[nH]2)c(O)c(OC)c2occc12,> 100 µM (inactive),26.7 µM (inactive),> 100 µM (inactive),> 100 µM (inactive),> 100 µM (inactive),> 100 µM (inactive),> 100 µM (inactive),> 100 µM,> 100 µM (inactive),> 100 µM (inactive),> 100 µM (inactive),97.1 µM (inactive),> 100 µM (inactive),> 100 µM (inactive),> 100 µM (inactive),–,> 100 µM (inactive),75.9 µM (inactive),> 10 µM (inactive),–
COc1cc(CNc2nc3ccccc3n2Cc2ccccc2)cc(CN2CCOCC2)c1O,–,27.9 µM (inactive),20 µM (inactive),28.6 µM (inactive),34.8 µM (inactive),60.7 µM (inactive),20.9 µM (inactive),29.6 µM,50.9 µM (inactive),16.7 µM (inactive),32.4 µM (inactive),59.8 µM (inactive),33.9 µM (inactive),22.4 µM (inactive),32.1 µM (inactive),28.3 µM (inactive),23 µM (inactive),18.7 µM (inactive),29.9 µM (inactive),–
NS(=O)(=O)c1ccc(NC(=S)NC=C2C(=O)c3ccccc3C2=O)cc1,> 100 µM (inactive),19.4 µM (inactive),35.5 µM (inactive),> 100 µM (inactive),> 100 µM (inactive),> 100 µM (inactive),> 100 µM (inactive),38.9 µM,> 100 µM (inactive),> 100 µM (inactive),65.9 µM (inactive),36.5 µM (inactive),38.3 µM (inactive),62.1 µM (inactive),–,> 100 µM (inactive),–,23.7 µM (inactive),14.4 µM (inactive),–
COc1ccc(N2C(=O)C3C=CC(n4[nH]c(=O)n(Cc5ccccc5)c4=O)CC3C2=O)cc1 (stereo unspecified),> 100 µM (inactive),> 100 µM (inactive),> 100 µM (inactive),> 100 µM (inactive),> 100 µM (inactive),> 100 µM (inactive),> 100 µM (inactive),> 100 µM,> 100 µM (inactive),> 100 µM (inactive),> 100 µM (inactive),> 100 µM (inactive),> 100 µM (inactive),> 100 µM (inactive),> 100 µM (inactive),> 100 µM (inactive),–,–,–,–
CCOC(=O)CC(NC(=O)c1ccc(/N=N/N(C)C)cc1)C(=O)OCC (stereo unspecified),> 100 µM (inactive),91.8 µM (inactive),> 100 µM (inactive),> 100 µM (inactive),> 100 µM (inactive),> 100 µM (inactive),> 100 µM (inactive),> 100 µM,> 100 µM (inactive),> 100 µM (inactive),> 100 µM (inactive),> 100 µM (inactive),> 100 µM (inactive),> 100 µM (inactive),> 100 µM (inactive),> 100 µM (inactive),–,–,–,–
Nc1ccc(/C=C/c2ccnc3ccccc23)cc1,3.24 µM (inactive),15.9 µM (inactive),20 µM (inactive),15.3 µM (inactive),16.2 µM (inactive),20 µM (inactive),22.9 µM (inactive),21 µM,16.1 µM (inactive),18.6 µM (inactive),13.2 µM (inactive),16.5 µM (inactive),28.4 µM (inactive),17.7 µM (inactive),21.8 µM (inactive),12.1 µM (inactive),–,–,–,–
COc1cccc(Nc2nc3c([nH]2)c(=O)n(C)c(=O)n3C)c1,> 10 µM (inactive),> 10 µM (inactive),–,> 10 µM (inactive),> 10 µM (inactive),> 10 µM (inactive),> 10 µM (inactive),> 10 µM,–,> 10 µM (inactive),–,> 10 µM (inactive),> 10 µM (inactive),–,> 10 µM (inactive),> 10 µM (inactive),–,> 10 µM (inactive),–,–
O=C(Nc1ccc(Cl)cc1)NS(=O)(=O)c1c(-c2ccccc2)oc2ccccc2c1=O,61.7 µM (inactive),> 100 µM (inactive),47.9 µM (inactive),71.6 µM (inactive),36.2 µM (inactive),67 µM (inactive),56.4 µM (inactive),50.6 µM,47.4 µM (inactive),> 100 µM (inactive),1.97 µM (inactive),> 100 µM (inactive),54.2 µM (inactive),45.2 µM (inactive),59.3 µM (inactive),33.9 µM (inactive),86.3 µM (inactive),–,> 100 µM (inactive),–
CN(C)Nc1cc(=O)[nH]c(=O)[nH]1,> 100 µM (inactive),–,> 100 µM (inactive),> 100 µM (inactive),> 100 µM (inactive),–,> 100 µM (inactive),> 100 µM,> 100 µM (inactive),> 100 µM (inactive),–,> 100 µM (inactive),> 100 µM (inactive),–,> 100 µM (inactive),> 100 µM (inactive),> 100 µM (inactive),> 100 µM (inactive),–,> 100 µM (inactive)
O=C(/C=C/c1ccc(O)cc1)c1ccc2c(c1)OCO2,12.1 µM (inactive),12.4 µM (inactive),13.8 µM (inactive),18.7 µM (inactive),17 µM (inactive),18.2 µM (inactive),14.7 µM (inactive),26.1 µM,26.2 µM (inactive),18 µM (inactive),12.8 µM (inactive),23.8 µM (inactive),20.8 µM (inactive),27 µM (inactive),15.2 µM (inactive),1.21 µM (inactive),25.1 µM (inactive),17.5 µM (inactive),–,–
O=C(O)CCC(NC(=O)c1ccc(Nc2nc3cc(C(F)(F)F)ccc3nc2C(=O)O)cc1)C(=O)O (stereo unspecified),> 100 µM (inactive),> 100 µM (inactive),> 100 µM (inactive),> 100 µM (inactive),> 100 µM (inactive),> 100 µM (inactive),> 100 µM (inactive),> 100 µM,> 100 µM (inactive),> 100 µM (inactive),> 100 µM (inactive),> 100 µM (inactive),> 100 µM (inactive),> 100 µM (inactive),> 100 µM (inactive),> 100 µM (inactive),> 100 µM (inactive),> 100 µM (inactive),> 100 µM (inactive),–
O=c1[nH]c(Nc2cccc(C(F)(F)F)c2)nc2[nH]cnc12,> 100 µM (inactive),71.1 µM (inactive),> 100 µM (inactive),> 100 µM (inactive),> 100 µM (inactive),–,73.3 µM (inactive),> 100 µM,–,> 100 µM (inactive),69.7 µM (inactive),> 100 µM (inactive),> 100 µM (inactive),88.3 µM (inactive),> 100 µM (inactive),> 100 µM (inactive),> 100 µM (inactive),> 100 µM (inactive),75.7 µM (inactive),–
O=C(Nn1c(-c2cccs2)nc2ccc(I)cc2c1=O)c1ccccc1,–,–,–,40.7 µM (inactive),27.9 µM (inactive),21.2 µM (inactive),30.7 µM (inactive),30.6 µM,26.8 µM (inactive),43.2 µM (inactive),22.1 µM (inactive),34.4 µM (inactive),22 µM (inactive),–,39 µM (inactive),–,31.8 µM (inactive),–,–,16.4 µM (inactive)
CC(C)CC(NC(=O)OCc1ccccc1)C(=O)NCCCCC(NC(=O)C(CCCCNC(=O)C(CC(C)C)NC(=O)OCc1ccccc1)NC(=O)C(CCCCNC(=O)C(CC(C)C)NC(=O)OCc1ccccc1)NC(=O)C(CCCCNC(=O)C(CC(C)C)NC(=O)OCc1ccccc1)NC(=O)OC(C)(C)C)C(=O)O (stereo unspecified) (Boc-K([Leu-Cbz])K([Leu-Cbz])K([Leu-Cbz])K([Leu-Cbz])-OH; configuration not given here),> 25 µM (inactive),> 25 µM (inactive),–,> 25 µM (inactive),–,> 25 µM (inactive),–,> 25 µM,> 25 µM (inactive),> 25 µM (inactive),> 25 µM (inactive),> 25 µM (inactive),> 25 µM (inactive),> 25 µM (inactive),> 25 µM (inactive),> 25 µM (inactive),–,> 25 µM (inactive),–,> 25 µM (inactive)
